Experimental data taken from patent US11065249B2, “Diacylglycerol acyl transferase 2 inhibitor” (Pfizer Inc., priority 2019, dated 2021).
In brackets after ≈: the same amount, converted by molar mass.

Experiments:
[1] = system: Western diet fed Sprague-Dawley rats; assay: Rat western diet model: in vivo effects on plasma and hepatic triglyceride levels; details: oral twice daily 3-100 mg/kg, compared with chow-fed vehicle animals
Source text: The rat western diet model was utilized to assess the effects of DGAT2 inhibitor treatment on plasma triglyceride production and hepatic triglyceride content in vivo. Male Sprague-Dawley rats were housed under standard laboratory conditions on a 12-hour light, 12-hour dark cycle (lights on at 06:00). Two weeks prior to study start animals were placed on a high-fat, high sucrose, high-cholesterol diet (D12079b, provided by Research Diets, New Brunswick, N.J.). This diet provides ˜43% of kilocalories from carbohydrate and ˜41% of kilocalories from fat. Example 4 was administered orally as a solution (10 mL/kg dosing volume) in 0.5% methylcellulose in deionized water, pH 7.0-7.5 (methylcellulose was obtained from Sigma-Aldrich, St. Louis, Mo.). […] Plasma TG levels were determined using a Roche Hitachi Chemistry analyzer according to the manufacturer's instructions (Roche Diagnostics Corporation, Indianapolis, Ind.) and data was analyzed using GraphPad Prism (GraphPad Software, Inc., La Jolla, Calif.). […] The triglyceride assay was performed through absorbance and reported as milligrams per deciliter. […]
FIG. 4 plots the multiple dose effects of Example 4 on Plasma Triglyceride in Western Diet Fed Sprague-Dawley Rats where plasma triglyceride levels were determined from blood drawn from the lateral tail vein 2-hours following the final dose of Example 4. […]

[2] = Determination of pKa (capillary electrophoresis, Analiza); format: physicochemical; details: most basic pKa, mean
[3] = Intrinsic clearance in human hepatocytes (relay method); format: in vitro ADME; details: cryopreserved human hepatocytes (suspension), relay hepatocyte assay, 1 μM test compound, mean +/− Std Dev
Protocol: Cryopreserved human hepatocytes (Lot DCM from BioreclamationIVT) were used. […] At time 0 and 4 h, 25 μL of hepatocyte suspension was removed from the incubation and added to 50 μL of ice-cold acetonitrile (containing metoprolol, indomethacin, and terfenadine as internal standards) to quench the reaction. The samples were centrifuged (Eppendorf, Hauppauge, N.Y.) at 3000 rpm (1439×g) for 10 min at room temperature, and 50 μL of supernatant was transferred to a clean plate, dried completely, and reconstituted before liquid chromatography/tandem mass spectrometry (LC-MS/MS) analysis. The remaining hepatocyte suspensions in the incubation plate were centrifuged (3000 rpm, 1439×g, 10 min, room temperature). The supernatant of 300 μL was transferred to a clean 24-well plate and stored at −80° C. until the next relay experiment. For the second relay experiment, the supernatant plates were warmed first to room temperature for 30 minutes, then to 37° C. for 30 min, and hepatocytes were added to the samples to give a final cell density of 0.5 million cells/mL. The plates were incubated at 37° C. for 4 h, sampled, and processed as described above. Five relays were performed to give a total incubation time of 20 h, with sampling points at (0, 4, 8, 12, 16 and 20 h). The concentrations of test compound determined at each time point by the LC-MS/MS analysis were used to calculate the intrinsic clearance.

[4] = High throughput determination of intrinsic clearance in human hepatocytes; format: in vitro ADME; details: human, pooled cryopreserved human hepatocytes (suspension), high throughput human hepatocyte assay, 1 μM test compound; mean +/− Std Dev
Protocol: The incubation was carried out at 37° C. […] The samples were centrifuged (Eppendorf, Hauppauge, N.Y.) at 3000 rpm for 5 min at 4° C.

[5] = Intrinsic clearance in human liver microsomes; format: in vitro ADME; details: human, pooled human liver microsomes, pH 7.4, human liver microsome assay, 1 μM test compound; mean +/− STD Dev
Protocol: The incubations were conducted at 37° C. […] (Sorvall R C 3C Plus, Thermo Scientific, Waltham, Mass.).

[6] = Thermodynamic solubility in various biorelevant media (PBS, SGN, FaSSIF, FeSSIF); format: physicochemical; details: 25 °C, thermodynamic from solid
Protocol: The solubility of active pharmaceutical ingredients is an important characteristic in determining biological performance and ease of formulation during drug development, with high solubility being preferred (Klein, S. 2010, The AAPS Journal, 12, 397-406; Di, L., et al 2012, Drug Disc. Today, 17.486-495). A test sample of crystalline solid (˜7 mg) was combined in a vial with 1 mL of the relevant buffer solution and the mixture vortexed to combine. If the solid dissolved completely, additional solid was added with vortexing until a saturated solution was obtained. The saturated solution/solid mixture was capped and subjected to temperature cycling as follows: 1 min at 25° C.; 8 h at 40° C.; 5 h at 15° C. and 12 h at 25° C. The mixture was filtered in a centrifugal filtration device (0.22 μm PVDF filter, MilliporeSigma, Milwaukee, Wis.) at 13,000 rpm and the concentration of the test compound in the filtrate was determined by HPLC/UPLC with reference to a three point standard curve. Phosphate buffered saline (PBS, pH 6.8, 50 mM phosphate buffer, 250 mM NaCl). Simulated gastric fluid (SGN pH 1.2, USP recipe). Fasted state simulated intestinal fluid (FaSSIF, 3 mM sodium taurocholate, 0.75 mM phospholipid from soybean lecithin, 50 mM phosphate buffer, ionic strength adjusted to 250 mM with NaCl, pH 6.8) and fed state simulated intestinal fluid (FeSSIF, 15 mM sodium taurocholate, 3.75 mM phospholipid from soybean lecithin, 144 mM acetic acid, 50 mM phosphate buffer, ionic strength adjusted to 250 mM with NaCl, pH 6.8).

pKa [2]: 7.5
hepatocyte CLint at 1 μM [3]: 0.98 µL/min/1e6 cells
hepatocyte CLint at 1 μM [4]: < 1.8 µL/min/1e6 cells
microsomal CLint at 1 μM [5]: < 7 µL/min/mg
solubility at 25 h ([6]; fasted state simulated intestinal fluid (FaSSIF), FaSSIF pH 6.8): 955 µg/mL (≈ 2180 µM)
solubility at 25 h ([6]; phosphate buffered saline, aqueous buffer, PBS, pH 6.8): 580 µg/mL (≈ 1320 µM)
solubility at 25 h ([6]; simulated gastric fluid, SGN pH 1.2): > 27000 µg/mL
Structure (SMILES): CCOc1cccnc1Oc1cncc(-c2ncc(C(=O)N[C@@H]3CNC[C@@H](F)C3)cn2)c1 [Example 4, 2-{5-[(3-Ethoxypyridin-2-yl)oxy]pyridin-3-yl}-N-[(3S,5S)-5-fluoropiperidin-3-yl]pyrimidine-5-carboxamide]
circulating triglyceride response, resulting levels [1]: approached those of the chow-fed vehicle animals
